Key:
[1] = test system: proteins downstream of Syk kinase in activated BMMC cells; assay: Phosphorylation of proteins in the IgE receptor signal transduction cascade in activated BMMC cells; assay type: cell-based, mouse; conditions: varying concentrations, FIG. 7
CHMC cells [2] = assay: ionomycin-induced calcium ion flux in CHMC cells; assay type: cell-based, human; conditions: 10 μM compound
[3] = test system: basophils in whole human peripheral blood; assay: Basophil ionomycin activation: histamine release assay; assay type: cell-based; conditions: Homo sapiens
Procedure: Assays for ionomycin-induced basophil cell degranulation were carried out as described for the Basophil IgE or Dustmite Activation Assay (Section 6.4.6, supra), with the exception that following incubation with compound, cells were stimulated with 20 μl of 2 μM ionomycin.

[4] = assay type: in vivo; conditions: 14-day repeat-dose; intranasal in rabbits and primates, oral in mice and rats
B-cell line BJAB = assay: BJAB (B-cell) toxicity, light scatter; assay type: cell-based; conditions: Homo sapiens; BJAB B-cells, flow cytometric light scatter; read-out: Toxicity BJAB Light Scat.
Procedure: The B-cell line BJAB was cultured in log phase in RPMI1640+10% heat-inactivated fetal bovine serum, lx L-glutamine, lx penicillin, lx […] and 1× beta-mercaptoethanol at 37° C., 5% CO2. First, BJABs were harvested, spun and resuspended in culture medium to a concentration of 7.7×10^5 cells/mL. 65 uL cells were mixed with 65 uL compound, in duplicate and in the presence of 0.1% DMSO in a V-bottomed 96-well tissue culture plate. Cells were incubated with compound at various dilutions at 37° C., 5% CO2. Toxicity was assessed by flow cytometric analysis of cellular light scatter.

CHMC cells [5] = assay: anti-IgE-induced calcium ion flux in CHMC cells; assay type: cell-based, human; conditions: 10 μM compound
[6] = test system: basophils in whole human peripheral blood; assay: Basophil dustmite activation: histamine release assay; assay type: cell-based; conditions: read-out: Basophils Dust mite Histmine IC50
Procedure: The basophil activation assay was carried out using whole human peripheral blood from donors allergic to dust mites with the majority of the red blood cells removed by dextran sedimentation. Human peripheral blood was mixed 1:1 with 3% dextran T500 and RBCs were allowed to settle for 20-25 min. The upper fraction was diluted with 3 volumes of D-PBS and cells were spun down for 10 min at 1500 rpm, RT. Supernatant was aspirated and cells were washed in an equal volume MT-buffer. Finally, cells were resuspended in MT-buffer containing 0.5% DMSO in the original blood volume. 80 uL cells were mixed with 20 uL compound in the presence of 0.5% DMSO, in triplicate, in a V-bottom 96-well tissue culture plate. A dose range of 8 compound concentrations was tested resulting in a 10-point dose response curve including maximum (stimulated) and minimum (unstimulated) response. […] The cells were stimulated for 30 minutes at 37° C., 5% CO2. […] The ELISA was performed according to supplier's instructions.

[7] = Sheep model of allergic asthma (Ascaris suum challenge); assay type: in vivo; conditions: administered in an aqueous suspension
Procedure: Sheep develop bronchoconstriction within minutes of exposure to inhaled antigen (Ascaris suum), with maximal airflow obstruction during the early allergic response (EAR). Release of preformed mast cell mediators is likely responsible for this early phase of airflow obstruction. […] In the sheep, AHR develops a few hours following antigen challenge, and can persist for up to 2 weeks.
In the sheep model of allergic asthma, sheep are administered aerosols of test article via an endotracheal tube, followed by an aerosol challenge with antigen extracted from the roundworm, Ascaris suum, to which the sheep are naturally allergic. Allergen challenge leads to direct bronchoconstriction (both EAR and LAR) and a persistent non-specific AHR. These three characteristics are similar to those seen in human allergic asthmatics. The activity of the test agent is determined by changes in the lung resistance (RL), which is calculated from measurements of transpulmonary pressure, flow, and respiratory volume. […] The LAR is a less pronounced increase in RL, which starts approximately 5-6 hours following allergen challenge and is resolved by 8 hours post-challenge. Twenty-four hours after the challenge, a dose response to carbachol is measured to determine the AHR, which is expressed as the dose of carbachol required to increase RL by 400% over baseline. […]

[8] = test system: IgE-induced degranulation of tissue mast cells; assay: Mouse model of passive cutaneous anaphylaxis (PCA); assay type: in vivo; conditions: mouse, in vivo
Procedure: This model provides a direct measure of IgE-induced degranulation of tissue mast cells. In this model, IgE primed animals are exposed to an allergen challenge, and the change in permeability of dermal vasculature that results from histamine release from mast cells is measured by change in the amount of dye leakage into surrounding tissue. Inhibition of mediator release by compounds that modulate mast cell degranulation is easily measured by extracting the dye from the tissue.
In the PCA assay mice are passively sensitized by intradermal injection with anti-dinitrophenol (DNP) IgE antibodies (Day −1). At predetermined times animals are treated with the test agent (Day 0). The modulatory effect of the agent on cutaneous mast cell degranulation is measured following intravenous injection of DNP conjugated to human serum albumin (HSA-DNP), together with Evans blue dye. The resulting cross-linking of the IgE receptor and subsequent mast cell degranulation-induced increase in vascular permeability is determined by measuring the amount of dye extravasation into the tissue. Dye is extracted from the tissue by formamide, and the absorbance of this extract is read at 620 nm.

[9] = test system: bone marrow derived mast cells (BMMC); assay: BMMC high cell density IgE activation: degranulation (hexosiminidase, histamine), leukotriene (LTC4) and cytokine (TNFalpha, IL-6) assays; assay type: cell-based; conditions: Mus musculus, anti-IgE activation, hexosaminidase release, read-out: BMMC anti-IgE hexos IC50

Compound | phosphorylation of various proteins downstream of Syk kinase in the IgE receptor signal transduction cascade [1] | ionomycin-induced Ca2+ flux (CHMC cells [2]) | IC50 [3] | dose limiting toxicity [4] | IC50 (B-cell line BJAB) | anti-IgE-induced Ca2+ flux (CHMC cells [5]) | IC50 [6] | effect on the EAR (in words) [7] | inhibition of the PCA response / FcεR-mediated vascular leakage (in words) [8] | IC50 [9]
Oc1cccc(Nc2ncc(F)c(Nc3cccc(O)c3)n2)c1 [Compound R921218, N2,N4-Bis(3-hydroxyphenyl)-5-fluoro-2,4-pyrimidinediamine] | inhibit phosphorylation | no effect on ionomycin-induced Ca^2+ flux | > 10 µM | no dose limiting toxicity | > 10 µM | inhibited anti-IgE-induced Ca^2+ flux | 0.302 µM | failed to inhibit the EAR | dose-dependent inhibition | 
Fc1cnc(Nc2ccc3c(c2)OCCO3)nc1Nc1ccc2c(c1)OCCO2 [Compound R926109, N2,N4-Bis(3,4-ethylenedioxyphenyl)-5-fluoro-2,4-pyrimidinediamine] |  |  | > 10 µM |  | > 10 µM |  |  |  | dose-dependent inhibition | 0.6 µM
COc1ccc(Nc2ncc(F)c(Nc3cccc(O)c3)n2)cc1OC [Compound R926113, N2-(3,4-Dimethoxyphenyl)-5-fluoro-N4-(3-hydroxyphenyl)-2,4-pyrimidinediamine] |  |  | > 10 µM |  | > 10 µM |  |  |  |  | 0.65 µM
